Test results reported in article PMC8222254, “Self-assembly of an anion receptor with metal-dependent kinase inhibition and potent in vitro anti-cancer properties” (Nature Communications, 2021).
Where “and” joins values, the source holds several entries; their conditions need not be identical. Equal entries are not always repeated. Where two headings read alike, the source gives them in different places.

Columns and labels:
Experiment in all cases: Chemosensitivity, 96 h continuous exposure, MTT assay
Type in all cases: cell-based, human
H460 = settings: for Selectivity index (ARPE19): IC50 ARPE-19 / IC50 H460; for Selectivity index (MCF10A): IC50 MCF10A / IC50 H460; for Relative potency (+ anion to no anion), Ratio + anion:no anion: ratio of IC50, H460; for Selectivity indices relative to ARPE-19, Ratio + anion:no anion: ratio of SI (ARPE-19)
In short: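 Cells were seeded overnight at 37 °C (2 × 10^3/well; GBM1 at 3 × 10^3/well on poly-L-ornithine/laminin in Neurobasal with hFGF/rhEGF), then exposed to compound concentration ranges for 96 h. Viability was read by MTT (4 h, formazan in DMSO, A540) and IC50 taken from dose–response curves.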

HCT116 p53+/+ = settings: for IC50 / Selectivity indices relative to ARPE-19, Ratio + anion:no anion / Selectivity indices relative to MCF10A, Ratio + anion:no anion: HCT116 p53+/+; for Selectivity index (ARPE19): IC50 ARPE-19 / IC50 HCT116 p53+/+; for Selectivity index (MCF10A): IC50 MCF10A / IC50 HCT116 p53+/+; for Relative potency (+ anion to no anion), Ratio + anion:no anion: ratio of IC50, HCT116 p53+/+; for Selectivity indices relative to ARPE-19, Ratio + anion:no anion: ratio of SI (ARPE-19); for Selectivity indices relative to MCF10A, Ratio + anion:no anion: ratio of SI (MCF 10A)
In short: (§1)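 Growth inhibition is measured by MTT after cells are dosed for 96 h without washout. The 50% growth-reduction concentration is then interpolated from the curves.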

HCT116 p53-/- = settings: for IC50 / Selectivity indices relative to ARPE-19, Ratio + anion:no anion / Selectivity indices relative to MCF10A, Ratio + anion:no anion: HCT116 p53-/-; for Selectivity index (ARPE19): IC50 ARPE-19 / IC50 HCT116 p53-/-; for Selectivity index (MCF10A): IC50 MCF10A / IC50 HCT116 p53-/-; for Relative potency (+ anion to no anion), Ratio + anion:no anion: ratio of IC50, HCT116 p53-/-; for Selectivity indices relative to ARPE-19, Ratio + anion:no anion: ratio of SI (ARPE-19); for Selectivity indices relative to MCF10A, Ratio + anion:no anion: ratio of SI (MCF 10A)
In short: as §1

MiaPaCa2 = settings: for Selectivity index (ARPE19): IC50 ARPE-19 / IC50 MiaPaCa2; for Selectivity index (MCF10A): IC50 MCF10A / IC50 MiaPaCa2; for IC50 / Selectivity indices relative to ARPE-19, Ratio + anion:no anion / Selectivity indices relative to MCF10A, Ratio + anion:no anion: MiaPaCa2; for Relative potency (+ anion to no anion), Ratio + anion:no anion: ratio of IC50, MiaPaCa2; for Selectivity indices relative to ARPE-19, Ratio + anion:no anion: ratio of SI (ARPE-19); for Selectivity indices relative to MCF10A, Ratio + anion:no anion: ratio of SI (MCF 10A)
In short: as §1

[1] = H460, mean of replicates, read-out: Mean IC50
[2] = H460, read-out: Mean IC50 values
[3] = H460, single replicate, read-out: IC50 values for each replicate
[4] = mean of replicates, read-out: Mean IC50
[5] = single replicate, read-out: IC50 values for each replicate

| SMILES | IC50 (H460; [1]) [nM] | IC50 (H460; [2]) [nM] | IC50 (H460; [3]) | Selectivity index (ARPE19) (H460) | Selectivity index (MCF10A) (H460) | Relative potency (+ anion to no anion), Ratio + anion:no anion (H460) | Selectivity indices relative to ARPE-19, Ratio + anion:no anion (H460; H460) | IC50 (HCT116 p53+/+; [4]) [nM] | IC50 (HCT116 p53+/+; read-out: Mean IC50 values) [nM] | IC50 (HCT116 p53+/+; [5]) | Selectivity index (ARPE19) (HCT116 p53+/+) | Selectivity index (MCF10A) (HCT116 p53+/+) | Relative potency (+ anion to no anion), Ratio + anion:no anion (HCT116 p53+/+) | Selectivity indices relative to ARPE-19, Ratio + anion:no anion (HCT116 p53+/+) | Selectivity indices relative to MCF10A, Ratio + anion:no anion (HCT116 p53+/+) | IC50 (HCT116 p53-/-; read-out: Mean IC50 values) [nM] | IC50 (HCT116 p53-/-; [5]) | Selectivity index (ARPE19) (HCT116 p53-/-) | Selectivity index (MCF10A) (HCT116 p53-/-) | Relative potency (+ anion to no anion), Ratio + anion:no anion (HCT116 p53-/-) | further results |
| --- | --- | --- | --- | --- | --- | --- | --- | --- | --- | --- | --- | --- | --- | --- | --- | --- | --- | --- | --- | --- | --- |
| O=P(O)(O)Oc1ccccc1.[Zn+2].[Zn+2].[Zn+2].c1ccc(-c2csc(NCCN(CCNc3nc(-c4ccccn4)cs3)CCNc3nc(-c4ccccn4)cs3)n2)nc1.c1ccc(-c2csc(NCCN(CCNc3nc(-c4ccccn4)cs3)CCNc3nc(-c4ccccn4)cs3)n2)nc1 [[L2Zn3(O3POPh)]4+] | 276 | 276 | 263 nM and 517 nM and 187 nM and 138 nM | 834.24 | 189.68 | 0.77 | 1.910 | 64 | 64 | 58 nM and 64 nM and 70 nM | 3597.66 | 818.02 | 0.14 | 10.661 | 2.358 | 85 | 155 nM and 65 nM and 36 nM | 2708.82 | 615.92 | 1.18 | IC50 (HCT116 p53-/-; [4]): 85 nM; Selectivity indices relative to ARPE-19, Ratio + anion:no anion (HCT116 p53-/-): 1.240; Selectivity indices relative to MCF10A, Ratio + anion:no anion (HCT116 p53-/-): 0.274; Selectivity index (ARPE19) (MiaPaCa2): 4.94; Selectivity index (MCF10A) (MiaPaCa2): 1.12; IC50 (MiaPaCa2; [4]): 46600 nM; IC50 (MiaPaCa2; read-out: Mean IC50 values): 46600 nM; IC50 (MiaPaCa2; [5]): 45400 nM and 47800 nM and 46800 nM; Relative potency (+ anion to no anion), Ratio + anion:no anion (MiaPaCa2): 0.79; Selectivity indices relative to ARPE-19, Ratio + anion:no anion (MiaPaCa2): 1.858; Selectivity indices relative to MCF10A, Ratio + anion:no anion (MiaPaCa2): 0.410 |
| CC(=O)[O-].CC(=O)[O-].CC(=O)[O-].O=P([O-])([O-])[O-].[Zn+2].[Zn+2].[Zn+2].c1ccc(-c2csc(NCCN(CCNc3nc(-c4ccccn4)cs3)CCNc3nc(-c4ccccn4)cs3)n2)nc1.c1ccc(-c2csc(NCCN(CCNc3nc(-c4ccccn4)cs3)CCNc3nc(-c4ccccn4)cs3)n2)nc1 [[L2Zn3(PO4)]3+] | 249 | 249 | 241 nM and 263 nM and 265 nM and 226 nM | 525.98 | 57.92 | 0.69 | 1.204 | 218 | 218 | 218 nM and 227 nM and 209 nM | 600.78 | 66.16 | 0.47 | 1.780 | 0.191 | 78 | 61 nM and 91 nM and 64 nM | 1679.10 | 184.91 | 1.08 | Selectivity indices relative to MCF10A, Ratio + anion:no anion (H460; ratio of SI (MCF 10A), H460): 0.129; Selectivity indices relative to ARPE-19, Ratio + anion:no anion (HCT116 p53-/-): 0.769; Selectivity indices relative to MCF10A, Ratio + anion:no anion (HCT116 p53-/-): 0.082; Selectivity index (ARPE19) (MiaPaCa2): 2.94; Selectivity index (MCF10A) (MiaPaCa2): 0.32; IC50 (MiaPaCa2; [4]): 44500 nM; IC50 (MiaPaCa2; read-out: Mean IC50 values): 44500 nM; IC50 (MiaPaCa2; [5]): 52400 nM and 49800 nM and 47600 nM and 22000 nM and 50800 nM; Relative potency (+ anion to no anion), Ratio + anion:no anion (MiaPaCa2): 0.75; Selectivity indices relative to ARPE-19, Ratio + anion:no anion (MiaPaCa2): 1.106; Selectivity indices relative to MCF10A, Ratio + anion:no anion (MiaPaCa2): 0.118 |
